{"source": "PubChem BioAssay (NCI)", "assay_in_all_cases": "NCI-60 cell line screen, 48 h", "key": {"[1]": {"tested_on": "MOLT-4 leukemia"}, "[2]": {"tested_on": "NCI/ADR-RES ovarian"}, "[3]": {"tested_on": "OVCAR-4 ovarian"}, "[4]": {"tested_on": "HOP-62 NSCLC"}, "[5]": {"tested_on": "SK-MEL-2 melanoma"}, "[6]": {"tested_on": "MDA-MB-231 breast"}, "[7]": {"tested_on": "SF-539 CNS"}, "[8]": {"tested_on": "HCC-2998 colon"}, "[9]": {"tested_on": "EKVX NSCLC"}, "[10]": {"tested_on": "NCI-H460 lung"}, "[11]": {"tested_on": "A549 NSCLC"}, "[12]": {"tested_on": "OVCAR-5 ovarian"}, "[13]": {"tested_on": "786-0 renal"}, "[14]": {"tested_on": "ACHN renal"}, "[15]": {"tested_on": "OVCAR-8 ovarian"}, "[16]": {"tested_on": "DU-145 prostate"}, "[17]": {"tested_on": "U251 CNS"}, "[18]": {"tested_on": "SW-620 colon"}, "[19]": {"tested_on": "COLO 205 colon"}, "[20]": {"tested_on": "SK-OV-3 ovarian"}, "[21]": {"tested_on": "MDA-MB-435"}, "[22]": {"tested_on": "MCF7 breast"}, "[23]": {"tested_on": "SN12C renal"}, "[24]": {"tested_on": "SR leukemia"}, "[25]": {"tested_on": "UACC-62 melanoma"}, "[26]": {"tested_on": "CCRF-CEM leukemia"}, "[27]": {"tested_on": "KM12 colon"}, "[28]": {"tested_on": "K-562 leukemia"}, "[29]": {"tested_on": "OVCAR-3 ovarian"}, "[30]": {"tested_on": "IGROV1 ovarian"}, "[31]": {"tested_on": "HCT-15 colon"}, "[32]": {"tested_on": "SF-295 CNS"}, "[33]": {"tested_on": "NCI-H226 lung"}, "[34]": {"tested_on": "NCI-H23 lung"}, "[35]": {"tested_on": "SK-MEL-28 melanoma"}, "[36]": {"tested_on": "BT-549 breast"}, "[37]": {"tested_on": "SNB-75 CNS"}, "[38]": {"tested_on": "NCI-H522 lung"}, "[39]": {"tested_on": "TK-10 renal"}, "[40]": {"tested_on": "RPMI-8226 leukemia"}, "[41]": {"tested_on": "MDA-N"}, "[42]": {"tested_on": "CAKI-1 renal"}, "[43]": {"tested_on": "UACC-257 melanoma"}, "[44]": {"tested_on": "A498 renal"}, "[45]": {"tested_on": "HCT-116 colon"}, "[46]": {"tested_on": "SNB-19 CNS"}, "[47]": {"tested_on": "SF-268 CNS"}, "[48]": {"tested_on": "HL-60(TB) leukemia"}, "[49]": {"tested_on": "HOP-92 NSCLC"}, "[50]": {"tested_on": "MALME-3M melanoma"}, "[51]": {"tested_on": "PC-3 prostate"}, "[52]": {"tested_on": "SK-MEL-5 melanoma"}, "[53]": {"tested_on": "M14 melanoma"}, "[54]": {"tested_on": "UO-31 renal"}, "[55]": {"tested_on": "T-47D breast"}, "[56]": {"tested_on": "RXF 393 renal"}}, "note": "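Method: 48-hour compound exposure of cells in 96-well plates, five concentrations, linear interpolation of endpoints. The concentration for 50% growth inhibition is given as GI50. TGI: total growth inhibition.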", "data": [{"compound": "CCN(CC)CCSc1c2cc(OC)ccc2nc2ccc(OC)cc12", "values": [{"measurement": "TGI", "setting": "[1]", "value": "> 21.8", "unit": "µM"}, {"measurement": "TGI", "setting": "[2]", "value": "> 25.9", "unit": "µM"}, {"measurement": "TGI", "setting": "[3]", "value": 16.9, "unit": "µM"}, {"measurement": "TGI", "setting": "[4]", "value": "> 75.4", "unit": "µM"}, {"measurement": "TGI", "setting": "[5]", "value": 44.6, "unit": "µM"}, {"measurement": "TGI", "setting": "[6]", "value": 19.9, "unit": "µM"}, {"measurement": "TGI", "setting": "[7]", "value": "> 100", "unit": "µM"}, {"measurement": "TGI", "setting": "[8]", "value": 40.5, "unit": "µM"}, {"measurement": "TGI", "setting": "[9]", "value": 29.7, "unit": "µM"}, {"measurement": "TGI", "setting": "[10]", "value": "> 61", "unit": "µM"}, {"measurement": "TGI", "setting": "[11]", "value": "> 70.9", "unit": "µM"}, {"measurement": "TGI", "setting": "[12]", "value": 44.5, "unit": "µM"}, {"measurement": "TGI", "setting": "[13]", "value": 4.1, "unit": "µM"}, {"measurement": "TGI", "setting": "[14]", "value": 3.12, "unit": "µM"}, {"measurement": "TGI", "setting": "[15]", "value": 35.3, "unit": "µM"}, {"measurement": "TGI", "setting": "[16]", "value": 3.56, "unit": "µM"}, {"measurement": "TGI", "setting": "[17]", "value": "> 53.1", "unit": "µM"}, {"measurement": "TGI", "setting": "[18]", "value": "> 100", "unit": "µM"}, {"measurement": "TGI", "setting": "[19]", "value": 4.14, "unit": "µM"}, {"measurement": "TGI", "setting": "[20]", "value": "> 54.4", "unit": "µM"}, {"measurement": "TGI", "setting": "[21]", "value": 21.3, "unit": "µM"}, {"measurement": "TGI", "setting": "[22]", "value": "> 100", "unit": "µM"}, {"measurement": "TGI", "setting": "[23]", "value": 9.75, "unit": "µM"}, {"measurement": "TGI", "setting": "[24]", "value": "> 21.8", "unit": "µM"}, {"measurement": "TGI", "setting": "[25]", "value": 33.5, "unit": "µM"}, {"measurement": "TGI", "setting": "[26]", "value": "> 22.6", "unit": "µM"}, {"measurement": "TGI", "setting": "[27]", "value": "> 71", "unit": "µM"}, {"measurement": "TGI", "setting": "[28]", "value": "> 22.6", "unit": "µM"}, {"measurement": "TGI", "setting": "[29]", "value": 8.07, "unit": "µM"}, {"measurement": "TGI", "setting": "[30]", "value": 4.11, "unit": "µM"}, {"measurement": "TGI", "setting": "[31]", "value": "> 100", "unit": "µM"}, {"measurement": "TGI", "setting": "[32]", "value": "> 57.5", "unit": "µM"}, {"measurement": "TGI", "setting": "[33]", "value": 53.8, "unit": "µM"}, {"measurement": "TGI", "setting": "[34]", "value": "> 25.7", "unit": "µM"}, {"measurement": "TGI", "setting": "[35]", "value": 32.7, "unit": "µM"}, {"measurement": "TGI", "setting": "[36]", "value": 21, "unit": "µM"}, {"measurement": "TGI", "setting": "[37]", "value": 31.8, "unit": "µM"}, {"measurement": "TGI", "setting": "[38]", "value": 3.1, "unit": "µM"}, {"measurement": "TGI", "setting": "[39]", "value": 22.1, "unit": "µM"}, {"measurement": "TGI", "setting": "[40]", "value": 6.96, "unit": "µM"}, {"measurement": "TGI", "setting": "[41]", "value": 8.97, "unit": "µM"}, {"measurement": "TGI", "setting": "[42]", "value": 22.9, "unit": "µM"}, {"measurement": "TGI", "setting": "[43]", "value": 16.4, "unit": "µM"}, {"measurement": "TGI", "setting": "[44]", "value": 51.5, "unit": "µM"}, {"measurement": "TGI", "setting": "[45]", "value": 3.42, "unit": "µM"}, {"measurement": "TGI", "setting": "[46]", "value": "> 65.7", "unit": "µM"}, {"measurement": "TGI", "setting": "[47]", "value": 12.7, "unit": "µM"}, {"measurement": "TGI", "setting": "[48]", "value": "> 100", "unit": "µM"}, {"measurement": "TGI", "setting": "[49]", "value": 4.61, "unit": "µM"}, {"measurement": "TGI", "setting": "[50]", "value": 7.74, "unit": "µM"}, {"measurement": "TGI", "setting": "[51]", "value": 12.1, "unit": "µM"}, {"measurement": "TGI", "setting": "[52]", "value": 27.7, "unit": "µM"}, {"measurement": "TGI", "setting": "[53]", "value": "> 32.3", "unit": "µM"}]}, {"compound": "C[C@@H]1Nc2cc(NC(=O)OCCF)nc(N)c2N=C1c1ccccc1", "values": [{"measurement": "TGI", "setting": "[1]", "value": "< 0.0001", "unit": "µM"}, {"measurement": "TGI", "setting": "[54]", "value": 89.1, "unit": "µM"}, {"measurement": "TGI", "setting": "[2]", "value": "< 0.0001", "unit": "µM"}, {"measurement": "GI50", "setting": "[3]", "value": "> 100", "unit": "µM"}, {"measurement": "TGI", "setting": "[3]", "value": "> 100", "unit": "µM"}, {"measurement": "TGI", "setting": "[7]", "value": "< 0.0001", "unit": "µM"}, {"measurement": "TGI", "setting": "[11]", "value": 46.6, "unit": "µM"}, {"measurement": "TGI", "setting": "[12]", "value": "> 100", "unit": "µM"}, {"measurement": "TGI", "setting": "[55]", "value": "> 100", "unit": "µM"}, {"measurement": "GI50", "setting": "[14]", "value": "< 0.0001", "unit": "µM"}, {"measurement": "TGI", "setting": "[14]", "value": "> 100", "unit": "µM"}, {"measurement": "TGI", "setting": "[15]", "value": 30, "unit": "µM"}, {"measurement": "TGI", "setting": "[17]", "value": 12.2, "unit": "µM"}, {"measurement": "TGI", "setting": "[18]", "value": "> 100", "unit": "µM"}, {"measurement": "TGI", "setting": "[19]", "value": "< 0.0001", "unit": "µM"}, {"measurement": "TGI", "setting": "[21]", "value": "< 0.0001", "unit": "µM"}, {"measurement": "GI50", "setting": "[22]", "value": "< 0.0001", "unit": "µM"}, {"measurement": "TGI", "setting": "[22]", "value": "> 100", "unit": "µM"}, {"measurement": "TGI", "setting": "[23]", "value": "> 100", "unit": "µM"}, {"measurement": "TGI", "setting": "[25]", "value": "> 100", "unit": "µM"}, {"measurement": "TGI", "setting": "[28]", "value": "< 0.0001", "unit": "µM"}, {"measurement": "TGI", "setting": "[29]", "value": "< 0.0001", "unit": "µM"}, {"measurement": "TGI", "setting": "[30]", "value": "< 0.0001", "unit": "µM"}, {"measurement": "TGI", "setting": "[31]", "value": "> 100", "unit": "µM"}, {"measurement": "TGI", "setting": "[56]", "value": "> 100", "unit": "µM"}, {"measurement": "TGI", "setting": "[32]", "value": 20.1, "unit": "µM"}, {"measurement": "GI50", "setting": "[33]", "value": "< 0.0001", "unit": "µM"}, {"measurement": "TGI", "setting": "[34]", "value": "> 100", "unit": "µM"}, {"measurement": "TGI", "setting": "[35]", "value": "> 100", "unit": "µM"}, {"measurement": "TGI", "setting": "[36]", "value": "> 100", "unit": "µM"}, {"measurement": "TGI", "setting": "[37]", "value": "> 100", "unit": "µM"}, {"measurement": "TGI", "setting": "[38]", "value": 0.509, "unit": "µM"}, {"measurement": "TGI", "setting": "[40]", "value": "< 0.0001", "unit": "µM"}, {"measurement": "TGI", "setting": "[41]", "value": "< 0.0001", "unit": "µM"}, {"measurement": "GI50", "setting": "[42]", "value": "< 0.0001", "unit": "µM"}, {"measurement": "TGI", "setting": "[43]", "value": "> 100", "unit": "µM"}, {"measurement": "GI50", "setting": "[44]", "value": "< 0.0001", "unit": "µM"}, {"measurement": "TGI", "setting": "[45]", "value": "> 100", "unit": "µM"}, {"measurement": "GI50", "setting": "[46]", "value": "< 0.0001", "unit": "µM"}, {"measurement": "TGI", "setting": "[48]", "value": "< 0.0001", "unit": "µM"}, {"measurement": "TGI", "setting": "[49]", "value": "> 100", "unit": "µM"}, {"measurement": "TGI", "setting": "[50]", "value": 49, "unit": "µM"}, {"measurement": "TGI", "setting": "[51]", "value": "> 100", "unit": "µM"}, {"measurement": "TGI", "setting": "[52]", "value": "< 0.0001", "unit": "µM"}]}]}
